Test results: publication PMC5543107, “Inhibition of glutamate decarboxylase (GAD) by ethyl ketopentenoate (EKP) induces treatment-resistant epileptic seizures in zebrafish” (Scientific Reports, 2017)
Where “and” joins values, the source holds several entries; their conditions need not be identical. Equal entries are not always repeated.

Key:
zebrafish larvae = test system: zebrafish larvae; parameters: method as in PMID 25845493; details: AG 200 mM − 300 mM; cited from earlier work
GAD = molecular target: GAD; parameters: method as in PMID 29640; details: in vitro studies; read-out: Ki for GAD inhibition; cited from earlier work
mice = test system: mice; parameters: method as in PMID 29640; details: intracerebroventricular (icv) administration; cited from earlier work
[1] = test system: EKP-treated zebrafish larvae; test: Effect of ASDs on EKP-induced locomotion activity; type: in vivo, Danio rerio; details: ASD at MTC, 18 h pre-incubation, 400 µM EKP
Procedure: Then, the larvae were treated with 400 µM EKP (or VHC) and the locomotion activity was monitored for 30 min (after 5 min of habituation) as described earlier. The average amount of movement per 5-min intervals was measured, quantified and normalized to the EKP control group for the entire 30-min tracking session or per 5-min interval.

[2] = test system: EKP-treated Tg(elavl3:GA) zebrafish larvae; test: Effect of ASDs on EKP-induced neuroluminescent events; type: in vivo, Danio rerio; details: ASD at MTC (ETS 250 µM, TGB 50 µM), 18 h, 400 µM EKP, 30-min recording
Procedure: Recordings were performed as described earlier.

[3] = test system: EKP-treated zebrafish larvae; test: Effect of ASDs on EKP-induced epileptiform discharges (LFP); type: in vivo, Danio rerio; details: ASD at MTC, 18 h pre-incubation, 400 µM EKP, 10-min LFP recording
Procedure: Then, the larvae were treated with 400 µM EKP (or VHC), embedded in agarose, and the LFP recordings were performed as described earlier.

c-fos expression = c-fos expression in larval heads by qPCR; type: in vivo, Danio rerio; details: 7 dpf larval heads, 15 min, 400 μM EKP or 20 mM PTZ (positive control)
Procedure: To measure the seizure-related changes in c-fos mRNA expression in the CNS, 12 larvae (7 dpf) were treated with either 20 mM PTZ, 400 μM EKP or VHC for 15 min and then rapidly decapitated. The heads were immediately processed for RNA isolation followed by cDNA synthesis as described for gad1b and gad2. qPCR analysis of c-fos mRNA expression using Bio-Rad 20x PrimePCR assays (c-fos assay ID: qDreCED0015103) was performed as described for gad1b and gad2, and normalized to the housekeeping gene ef1α and β-actin 1 (primers, Table S1).

7 dpf zebrafish larvae [4] = test: Survival rate of larvae exposed to EKP; type: in vivo, Danio rerio; details: 400 μM EKP, first 30 min
Procedure: Larvae (7 dpf) were arrayed individually in a 96-well plate, exposed to EKP (200 μM-800 μM) or VHC (control) and immediately scored under a stereomicroscope for lethality every 5 min for 1 h.

[5] = test system: Tg(elavl3:GA) zebrafish larvae; test: Neuroluminescence recording of Tg(elavl3:eGFP-apoAequorin) larvae exposed to EKP; type: in vivo, Danio rerio; details: 400 µM EKP, 30-min recording, vs VHC
Procedure: Tg(elavl3:eGFP-apoAequorin) zebrafish larvae were visually screened for even GFP expression at 3 dpf. Selected larvae were incubated with VHC in 40 µM CLZN-h for 18–24 h in the dark at 28 °C[38]. Excess of CLZN-h was removed by washing larvae repeatedly in E3 medium afterwards. […] The recordings started each time exactly 5 min after EKP exposure and were continued for 30 min. Photons emitted were detected by a photon-counting tube (Type H3460–04, Hamamatsu Photonics, Japan) that was positioned about 2 cm above the larvae. Light impulses were discriminated, prescaled and counted with a PC-based 32-bit counter/timer board (PCI-6601, National Instruments Corporation, Austin, TX, USA). The number of impulses occurring during a 5-sec time interval was monitored with custom-built software. Analysis of the bioluminescence recordings was done in a blinded way.

7 dpf zebrafish larvae [6] = test: EKP-induced locomotor activity, automated video tracking; type: in vivo, Danio rerio
Procedure: Larvae (6 dpf) in 100 µl VHC were arrayed individually in a 96-well plate (tissue culture plate, flat bottom, Falcon, USA) and kept for 18 h in the dark at 28 °C. Prior to tracking the following day (7 dpf) 100 μl of VHC or EKP stock solution was added to each well to obtain a range of EKP concentrations (200 μM-800 μM). The plates were placed in an automated video tracking device (ZebraBox^TM apparatus; Viewpoint, Lyon, France) and 5 min later the locomotor behavior of the larvae was monitored for 2 h in the dark at 28 °C. Locomotor activity was quantified using ZebraLab™ software (Viewpoint, Lyon, France) and expressed in “actinteg” units per 5-min interval. The actinteg value is defined as the sum of all image pixel changes detected during the time window.
These seizures are defined as rapid corkscrew-like accompanied with entire body jerking and twitching, which are easily distinguished from other behavioral abnormalities (for description of phase 1 and 3 seizures, see results).

7 dpf zebrafish larvae [7] = test: Local field potential (LFP) recordings in the optic tectum after EKP; type: in vivo, Danio rerio
Procedure: Larvae (6 dpf) in 100 µl VHC were arrayed individually in a 96-well plate and kept for 18 h in the dark at 28 °C. […] Next, the treated larva was embedded ventral side down in 2% low melting point agarose bathed in artificial cerebrospinal fluid (ACSF, 124 mM NaCl, 2 mM KCl, 2 mM MgSO4, 2 mM CaCl2, 1.25 mM KH2PO4, 26 mM NaHCO3, and 10 mM glucose). A blunt glass electrode (soda lime glass, Hilgenberg, Germany) was pulled with DMZ Universal Puller (Zeitz, Germany) to an opening of 15–20 microns, filled with ACSF and placed on the skin above the optic tectum. The recordings were performed using WinEDR (John Dempster, University of Strathclyde, UK). Differential signal was band pass filtered at 0.3–300 Hz and digitized at 2 kHz via a PCI-6251 interface (National Instruments, UK). LFP recordings started each time exactly 2 min after the removal of the larva from the EKP solution (or VHC) and were continued for 10 min at room temperature (24 °C).
EKP-induced events were considered as epileptiform activity when their signal exceeded three times the baseline and lasted for minimum 100 msec, as described previously. Electrophysiological recordings were analyzed in a blinded way using Clampfit 10.2 software (Molecular Devices, USA).

[8] = 7 dpf larvae, 200-800 μM tested

C=CCC(N)C(=O)O (stereo not drawn) [AG, 2-amino-4-pentenoic acid]
Outcome of seizures at high AG concentrations (zebrafish larvae): lethal
Ki (GAD): ~50 mM

C=CC[C@@H](N)C(=O)O [D-AG]
ED50 for seizure induction (mice): 0.804 mg/kg

C=CCC(=O)C(=O)O [KPA, 2-keto-4-pentenoic acid]
ED50 for seizure induction (mice): 0.0145 mg/kg
Ki (GAD): 0.001 mM

C=CC[C@H](N)C(=O)O [L-AG]
ED50 for seizure induction (mice): 0.375 mg/kg

N#Cc1ccccc1-c1cc(-c2ccccn2)cn(-c2ccccc2)c1=O [PER, perampanel]
Effect on EKP-induced locomotion (whole 30-min recording) [1]: significantly prevented
Effect on EKP-induced neuronal activity (cumulative photons emitted) [2]: significantly diminished
Effect on number of epileptiform discharges generated by EKP [3]: significantly attenuated

O=C1NC(=O)C(c2ccccc2)(c2ccccc2)N1 [PHT, phenytoin]
Effect on EKP-induced neuronal activity (cumulative photons emitted) [2]: significantly diminished
Effect on number of epileptiform discharges generated by EKP [3]: did not show significant effects

C1CCc2nnnn2CC1 [PTZ, Pentylenetetrazol]
c-fos expression compared to VHC (c-fos expression): significantly increased

CCOC(=O)Nc1ccc(NCc2ccc(F)cc2)cc1N [RGB, retigabine]
Effect on EKP-induced neuronal activity (cumulative photons emitted) [2]: significantly diminished
Effect on number of epileptiform discharges generated by EKP [3]: did not show significant effects

CC1(C)O[C@@H]2[C@@H](CO[C@@]3(COS(N)(=O)=O)OC(C)(C)O[C@@H]23)O1 [TPM, topiramate]
Effect on EKP-induced neuronal activity (cumulative photons emitted) [2]: significantly diminished
Effect on number of epileptiform discharges generated by EKP [3]: significantly attenuated

NS(=O)(=O)Cc1noc2ccccc12 [ZSM, zonisamide]
Effect on EKP-induced neuronal activity (cumulative photons emitted) [2]: significantly diminished
Effect on number of epileptiform discharges generated by EKP [3]: significantly attenuated

ethyl ketopentenoate [EKP]
Larval death (7 dpf zebrafish larvae [4]): without inducing any larval death
Averaged aequorin light signal [5]: increased
c-fos expression compared to VHC (c-fos expression): significantly increased
Locomotor activity (7 dpf zebrafish larvae [6]; 400 μM EKP, 7 dpf larvae, vs VHC): robust increase of locomotor activity
EKP concentrations at which a second phase (hyperactivity plateau) followed (7 dpf zebrafish larvae [6]; [8]): ≥ 300 µM
EKP concentrations with third phase (irreversible decline of total larval movement, paralysis, death) (7 dpf zebrafish larvae [6]; [8]): 300 to 800 µM
Fold lower concentration inducing hyperactivity compared with AG (7 dpf zebrafish larvae [6]; zebrafish larvae, AG data ref 13): 100 fold
Mean frequency of epileptiform events (7 dpf zebrafish larvae [7]; 400 μM EKP 15 min, optic tectum, 10-min recording, n = 58): 55.76 ± 6.87 events/10 min and 55.76 ± 6.872 events/10 min
Larvae with multiple epileptiform events (7 dpf zebrafish larvae [7]; 400 μM EKP, number of larvae out of total): 58/58
